Drawing on US8809325B2, “Benzyl-oxathiazine derivatives substituted with adamantane and noradamantane, medicaments containing said compounds and use thereof” (SANOFI, priority 2011, dated 2014), this text covers IC50 for one compound.

For this experiment, the target named is human 11β-HSD1 microsome fraction (Homo sapiens, UniProt P28845). Nature of the experiment: Enzymatic 11beta-HSD1 test (SPA-based detection). The following applies: human 11β-HSD1 microsomes, [1,2-3H]-cortisone, NADPH, 37° C., 1 hour. The experiment is classed as biochemical. As to the method:
Enzymatic 11beta-HSD1 Test:
To measure the activity of the compounds, an SPA-based detection method (Solly et al. 2005) was employed. First of all, 20 μl of the human 11β-HSD1 microsome fraction (0.2 μg of protein), prepared in 50 mM HEPES, 0.1% BSA (w/v), were applied to a plate with 384 wells. The test compounds (0.09 μl) were applied to the assay plate in 100% DMSO. The reaction was started by addition of 20 μl of [1,2-^3H]-cortisone (0.1 μCi/[…]) in assay buffer comprising 25 mM HEPES, 100 mM KCl, 5 mM NaCl, 2 mM MgCl2 and 0.25 mM NADPH. The plate was agitated at 37° C. for 1 hour. At the same time, a stop solution comprising 20 mg/ml SPA-PVT beads, 1.6 mg/ml monoclonal cortisol antibody and 0.01 mM SSR110887 (inhibitor from the Biovitrium patent) in 50 mM HEPES, 1 M NaCl and 1 M KCl was stirred at room temperature. To stop the reaction, 25 μl of the stop solution were added to each well. The plate was agitated gently at room temperature for 1 further hour and then centrifuged at 500 gav for 1 minute, in order that the SPA beads could settle out. The plate was then read in a Wallac-1450-Microbeta unit with a standard SPA program (counting time 1 min/well). The comparative compound was glycyrrhetinic acid.
Protein and radioactive substrate were dispensed with a Biomek FX unit (Beckman Coulter) for handling liquids. […]

Chain of human 11β-HSD1 microsome fraction (P28845 whole entry): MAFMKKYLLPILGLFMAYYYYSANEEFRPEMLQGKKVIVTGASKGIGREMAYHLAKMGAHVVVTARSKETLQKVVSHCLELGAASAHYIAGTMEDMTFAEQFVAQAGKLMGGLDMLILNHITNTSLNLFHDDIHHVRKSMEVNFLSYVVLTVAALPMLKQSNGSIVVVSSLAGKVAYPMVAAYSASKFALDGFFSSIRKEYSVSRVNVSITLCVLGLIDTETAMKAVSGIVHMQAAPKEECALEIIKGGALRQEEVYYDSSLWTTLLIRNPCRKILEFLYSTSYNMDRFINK

As to `CCN1CC(c2ccc(C[C@@H]3C(C)(C)OC(NC45C[C@@H]6C[C@@H](C[C@H]4C6)C5)=NS3(=O)=O)c(F)c2)C1` [Example 6, {(R)-5-[4-(1-Ethyl-azetidin-3-yl)-2-fluoro-benzyl]-6,6-dimethyl-4,4-dioxo-5,6-dihydro-4H-4lambda6-[1,4,3]oxathiazin-2-yl}-(2R,3aS,5S,6aS)-hexahydro-2,5-methano-pentalen-3a-yl-amine], the 50% inhibitory concentration (IC50) (usually the concentration that inhibits the measured activity by half) amounted to 3 nM.
